Results reported in US6491894B1, “NGR receptor and methods of identifying tumor homing molecules that home to angiogenic vasculature using same” (The Burnham Institute, priority 1998, dated 2002).
Where no end group is shown, it is not given here.

Legend:
CD13 [1] = target: T1, CD13 (Gallus gallus, UniProt O57579); experiment: bFGF-induced angiogenesis in chicken chorioallantoic membrane (CAM); type: in vivo; details: topical, 3 days
T1 construct: CD13 is expressed in CAM angiogenic vasculature; from tissue; host or cells: chorioallantoic membrane of 10-day chicken embryos
T1 sequence (O57579 1-972): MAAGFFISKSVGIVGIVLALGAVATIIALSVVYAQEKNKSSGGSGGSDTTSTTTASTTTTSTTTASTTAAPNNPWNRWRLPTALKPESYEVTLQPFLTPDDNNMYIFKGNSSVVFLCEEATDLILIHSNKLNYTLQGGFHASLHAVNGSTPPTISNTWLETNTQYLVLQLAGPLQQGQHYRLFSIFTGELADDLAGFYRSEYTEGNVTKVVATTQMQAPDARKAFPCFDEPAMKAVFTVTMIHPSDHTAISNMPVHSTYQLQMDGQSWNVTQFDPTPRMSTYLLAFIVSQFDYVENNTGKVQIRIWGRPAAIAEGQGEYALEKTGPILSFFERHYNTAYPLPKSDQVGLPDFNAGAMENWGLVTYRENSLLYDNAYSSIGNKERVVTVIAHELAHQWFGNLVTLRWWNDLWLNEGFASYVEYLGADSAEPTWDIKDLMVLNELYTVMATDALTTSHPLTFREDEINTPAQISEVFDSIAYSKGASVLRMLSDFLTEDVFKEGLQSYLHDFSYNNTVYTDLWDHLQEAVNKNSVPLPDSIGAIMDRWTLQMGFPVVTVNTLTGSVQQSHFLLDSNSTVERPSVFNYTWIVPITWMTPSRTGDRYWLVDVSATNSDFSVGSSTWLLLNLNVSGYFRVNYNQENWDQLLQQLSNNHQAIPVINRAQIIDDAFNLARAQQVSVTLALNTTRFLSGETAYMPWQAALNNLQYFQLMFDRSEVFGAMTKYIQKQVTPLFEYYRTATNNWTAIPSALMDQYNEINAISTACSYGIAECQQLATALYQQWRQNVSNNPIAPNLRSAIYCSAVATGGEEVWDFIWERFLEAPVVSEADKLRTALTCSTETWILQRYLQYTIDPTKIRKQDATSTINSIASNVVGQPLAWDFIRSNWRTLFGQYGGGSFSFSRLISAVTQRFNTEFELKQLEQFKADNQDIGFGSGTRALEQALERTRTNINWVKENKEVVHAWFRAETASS
From the text: Various treatments were applied topically, and, after 3 days, the filters and surrounding CAMs were resected and fixed in formalin.
Each bar represents the mean number of vessels and standard errors from 8 CAMs on each group.

CD13/aminopeptidase N = CD13/aminopeptidase N (Homo sapiens, UniProt P15144); details: cited from earlier work
[2] = high doses; cited from earlier work
[3] = tested on: MDA-MB-435 derived tumors; experiment: In vivo targeting of phage to breast carcinoma xenografts (phage recovery); set-up: species or system mouse
Method: When the tumors attained a diameter of about 1 cm, phage expressing a specific RGD-containing peptide were administered to the tumor bearing mouse. Similar results to those discussed below also were obtained with nude mice bearing tumors formed by implantation of human melanoma C8161 cells or by implantation of mouse B16 melanoma cells.
1×10^9 phage expressing the RGD-containing peptide, RGD-4C ([…]; SEQ ID NO:1; see, Koivunen et al., supra, 1995) or control (insertless) phage were injected intravenously (iv) into the mice and allowed to circulate for 4 min. The mice then were snap frozen or perfused through the heart while under anesthesia, and various organs, including tumor, brain and kidney, were removed and the phage present in the organs was quantitated (see U.S. Pat. No. 5,622,699; Pasqualini and Ruoslahti, supra, 1996).
Phage displaying tumor homing peptides were recovered from breast carcinoma xenografts. […] The mean number of phage recovered from the tumor or control tissue (brain) and the standard error of the mean (SEM) from triplicate platings are shown in FIG. 1.
An insertless phage with a different selective marker (ampicillin instead of tetracycline) was co-injected with the NGR phage at the same input to assess specificity within the same tumor-bearing animal. The ratios were calculated using the number of co-injected control ampicillin-resistant phage recovered from the same tissues. The phage were quantitated from triplicate platings on tetracycline (the homing phage) or ampicillin (control phage) selective plates. Various additional control phage were injected separately into tumor-bearing mice. These controls included: fd-tet phage without insert; unselected phage library mixtures; phage selected and shown to home to other normal vascular beds; and phage displaying peptides that were unrelated to NGR. The RGD-4C ([…]; SEQ ID NO:1) phage served as a positive control.

CD13/APN = target: T2, CD13/APN (Homo sapiens, UniProt P15144); experiment: Affinity chromatography of cell extracts on immobilized peptide; type: binding; details: Molt-4/CD13, MDA-MB-435/CD13 or HL-60 cell extracts
T2 construct: Experiments were performed using HL-60 cell extracts because they are known to express CD13/APN; endogenous in cells; host or cells: HL-60 cells (extract)
Method: To further characterize the interaction of CD13/APN with the NGR peptide, affinity chromatography on the CNGRC peptide was performed. The column was prepared by coupling the CNGRC peptide to SEPHAROSE (Pharmacia; Piscataway N.J.). Elution was effected with soluble CNGRC peptide. […] Extracts of Molt-4 and MDA-MB-435 cells transfected with CD13/APN were also characterized by using affinity chromatography, with extracts of the mock transfected counterparts used as negative controls.
The fractions were also analyzed for CD13 enzymatic activity using AlapNA as the substrate.

CD13 [4] = target: T3, CD13 (Homo sapiens, UniProt P15144); experiment: Phage binding assays with CD13/APN-transfected cells; type: cell-based; set-up: expressed in transfected cells; host or cells: Molt-4 human T cell leukemia; details: 250 and 500 μg/ml
Method: The CNGRC phage binds specifically to cells transfected with CD13. […] Briefly, mock transfected Molt-4 cells (“Molt-4/mock”) and cells transfected with CD13 (“Molt-4/CD13”) were incubated with CNGRC (SEQ ID NO:8) phage or with control Fd phage lacking an insert (2×10^9 transducing units (TU) per sample). Synthetic peptides, CNGRC (SEQ ID NO:8) or the negative control CARAC (SEQ ID NO:221), were pre-incubated with the cells at 250 and 500 μg/ml. After extensive washing, bound phage were quantitated by infection of bacteria as described above.

CD13 [5] = target: T3, CD13; experiment: Phage binding to immobilized CD13; set-up: Kaposi's sarcoma tumor cell octylglucoside extracts were used as a source of CD13/APN; endogenous in cells; host or cells: Kaposi's sarcoma tumor cells (octylglucoside extract); details: 200 μg/well
Method: In FIG. 4B, NGR-containing phage were assayed for the ability to bind CD13. […] Various phage were added to the wells at 2×10^9 transducing units (TU) per well. […] The data were expressed as means and standard errors from triplicate wells.
The data shown were expressed as means and standard errors from triplicate wells.

[6] = tested on: MDA-MB-435 breast carcinoma; experiment: Tumor therapy of mice bearing MDA-MB-435 breast carcinoma; type: in vivo, mouse
Method: Female 2-month old Balb c nu/nu mice (Harlan Sprague Dawley; San Diego Calif.) were used for these studies and were cared for according to the Burnham Institute animal facility guidelines. […] Tumors were allowed to grow to a size of about 1 cm^3 (about 5% of the mouse's body weight) before starting the treatment experiments, except for the toxicity experiments as discussed below.
Weekly doxorubicin/peptide conjugate or control treatments (5 μg/mouse/week of doxorubicin-equivalent) were administered intravenously. In some experiments, as indicated, a dose of 30 μg/mouse was administered every 3 weeks. […] As an additional control, in some experiments the tumor homing peptide was mixed with doxorubicin, without linking, and the mixture was administered to tumor bearing mice.
Mice were anesthetized with a tribromoethanol-based anesthetic mixture (AVERTIN; Papaioannou and Fox, Lab. Anim. 43:189-192 (1993)) before each treatment. Anesthetization facilitated the tail vein injections (final volume, 200 μl) and allowed precise serial three dimensional tumor size measurements. Tumor volume calculations were based on the equation for the volume of an ovaloid: V=4/3(nabc), where a, b, and c are ½ of the measured diameters in each of the three dimensions.
Briefly, mice with size-matched tumors (˜1000 mm^3) were randomized into four treatment groups (six animals per group): vehicle only, free doxorubicin, doxorubicin-control peptide, and doxorubicin-CNGRC (SEQ ID NO:8). Mice were treated at 5 μg/mouse/week of doxorubicin-equivalent, and the difference in tumor volumes between day 1 and day 28 determined (FIG. 11A).

Hodgkin's lymphoma = experiment: Treatment of mice bearing Hodgkin's lymphoma; type: in vivo; details: two doses, 40 μg/mouse doxorubicin equivalent, tumors ~5000 mm^3
Method: Mice bearing large (˜5000 mm^3) Hodgkin's lymphoma (eight animals per group) were randomized to receive two doses of free doxorubicin plus unconjugated CNGRC peptide or doxorubicin-CNGRC (SEQ ID NO:8) conjugate at 40 μg/mouse of doxorubicin equivalent.

[7] = Acute toxicity in mice bearing extremely large tumors; details: mouse, in vivo
[8] = 5 μg/mouse/week doxorubicin-equivalent iv

T3 sequence (P15144 whole entry): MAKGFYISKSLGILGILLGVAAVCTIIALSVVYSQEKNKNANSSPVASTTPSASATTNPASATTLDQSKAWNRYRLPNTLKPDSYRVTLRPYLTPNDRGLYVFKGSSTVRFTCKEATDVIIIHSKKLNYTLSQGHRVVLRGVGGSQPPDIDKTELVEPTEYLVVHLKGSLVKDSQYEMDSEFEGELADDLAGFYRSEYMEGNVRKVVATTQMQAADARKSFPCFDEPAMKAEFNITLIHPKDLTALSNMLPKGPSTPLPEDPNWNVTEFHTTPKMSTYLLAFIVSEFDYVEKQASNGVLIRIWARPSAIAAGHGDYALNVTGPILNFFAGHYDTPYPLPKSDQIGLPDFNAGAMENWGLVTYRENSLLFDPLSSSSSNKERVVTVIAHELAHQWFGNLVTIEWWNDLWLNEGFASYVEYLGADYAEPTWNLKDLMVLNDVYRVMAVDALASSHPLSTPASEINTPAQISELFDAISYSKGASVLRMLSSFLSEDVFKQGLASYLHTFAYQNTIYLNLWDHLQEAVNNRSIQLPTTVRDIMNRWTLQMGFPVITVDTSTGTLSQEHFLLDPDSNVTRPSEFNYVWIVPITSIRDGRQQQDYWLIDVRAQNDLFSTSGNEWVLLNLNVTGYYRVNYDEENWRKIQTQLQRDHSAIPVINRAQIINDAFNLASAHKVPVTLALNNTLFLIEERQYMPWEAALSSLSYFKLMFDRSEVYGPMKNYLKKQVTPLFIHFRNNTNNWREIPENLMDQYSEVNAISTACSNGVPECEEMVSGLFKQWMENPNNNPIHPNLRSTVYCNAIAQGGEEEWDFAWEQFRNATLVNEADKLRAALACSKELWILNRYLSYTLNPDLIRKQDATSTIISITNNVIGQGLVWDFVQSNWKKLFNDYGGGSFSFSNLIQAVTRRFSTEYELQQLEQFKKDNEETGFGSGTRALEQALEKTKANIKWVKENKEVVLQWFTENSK
T2 sequence (P15144 whole entry): as above
Sequence of CD13/aminopeptidase N (P15144 whole entry): as above

CC(C)C[C@H](NC(=O)[C@@H](O)[C@H](N)Cc1ccccc1)C(=O)O [bestatin]
effect on bFGF-induced angiogenesis in CAM (CD13 [1]): suppress bFGF-induced angiogenesis
block of cell-surface CD13/aminopeptidase N enzymatic activity (CD13/aminopeptidase N): potently blocked
effect on metastasis [2]: marked suppression of experimental and spontaneous metastasis

CNGRC
inhibition of accumulation of the two other NGR-displaying phage by co-injected soluble peptide ([3]; breast carcinoma xenografts): also inhibited the accumulation
inhibition of tumor homing of CNGRCVSGCAGRC (NGR) phage by co-injected soluble peptide ([3]; breast carcinoma xenografts): inhibited the accumulation
inhibition of tumor homing of RGD-4C phage by co-injected soluble peptide ([3]; increasing amounts of peptide): not inhibited
elution of CD13/APN from the CNGRC column by soluble peptide (CD13/APN): yielded fractions containing functional CD13/APN
inhibition of CNGRC phage binding to CD13 transfected cells by synthetic peptide (CD13 [4]): blocked
inhibition of NGR-phage binding to CD13 by peptide (CD13 [5]): Inhibition

doxorubicin/CNGRC (not fully specified (bridges); cysteine pairing not given here; also: doxorubicin conjugate)
survival [6, 8]: A marked effect on survival
tumor size versus doxorubicin control [6, 8]: significantly smaller
survival versus doxorubicin alone ([6]; 5 μg/mouse/week or single dose 200 μg/mouse doxorubicin equivalent): lived longer
cures ([6]; mouse, in vivo): Cures were also observed
effect on tumor growth ([6]; relative to vehicle alone): almost completely suppressed tumor growth
survival versus unconjugated peptide doxorubicin mixture (Hodgkin's lymphoma): lived longer
toxicity compared with free doxorubicin [7]: less toxic than free doxorubicin
